Source: PMC3177007 (Cancer gene therapy, 2011)

Columns and labels:
[1] = Particle size by dynamic light scattering; type: physicochemical; details: DLS; H3K(+H)4b:siRNA 2.2:1 (w/w)
[2] = Zeta potential; type: physicochemical; details: nanoplexes at selected ratios: H3K(+H)4b:siRNA 2.2:1; (RGD-PEG)-H3K(+H)4b/H2K4b/siRNA 3:0.8:1; (RGD-PEG)^4-H3K(+H)4b/H2K4b/siRNA 4:0.8:1
[3] = system: MDA-MB-435 cells; assay: Cellular uptake of Cy3 labeled-siRNA nanoplexes, confocal microscopy; type: cell-based, human; details: cells incubated 4 h with nanoplexes
[4] = system: siRNA; assay: Gel retardation assay of HK:siRNA nanoplexes; type: binding; details: H2K4b:siRNA ratio 0.8 to 1 (w:w); data not shown
[5] = H2K4b alone; ref [18]; cited from earlier work

Row | Sequence | size of the siRNA nanoplex [1] | zeta potential [2] | intracellular fluorescence pattern of Cy3 labeled-siRNA [3] | siRNA retained in gel retardation assay [4] | effectiveness as carrier of siRNA in silencing its targets [5]
1 | KHHHKHHHKHHHHKHHHK [H3K(+H)4b] | 149 ± 41 nm | 37 mV | discrete intracellular particles |  | 
2 | KHKHHKHHKHHKHHKHHKHK [H2K4b] |  |  |  | 35% | not an effective carrier
